The values below come from patent US20250154115A1, “ARYLBENZOISOXAZOLE COMPOUNDS AS IP6K AND IPMK INHIBITORS AND METHODS OF USE THEREOF” (THE UNIVERSITY OF NORTH CAROLINA AT CHAPEL HILL, priority 2022, published 2025).

What all share (assay type): biochemical
One assay concerns the target IPMK (Homo sapiens (Human), UniProt Q8NFU5). As to the kind of experiment: Enzyme-coupled assay, IPMK IC50.
In a further assay the target is IP6K1 (Homo sapiens (Human), UniProt Q92551). As to the kind of experiment: Enzyme-coupled assay of IP6K1 activity (Dipp1-coupled, malachite green Pi release). As for the experimental part:
(§1) […] The cells were disrupted using a constant cell disruption system (Constant Systems) under 20 kPsi.
(§2) Pi release was determined with a malachite green colorimetric assay.^45 Where indicated, TNP (Cayman Chemical) was added to the assays (FIG. 2A-E).

Another assay concerns the target IP6K2 (Homo sapiens (Human), UniProt Q9UHH9). As to the kind of experiment: Enzyme-coupled assay of IP6K2 activity (Dipp1-coupled, malachite green Pi release). As for the experimental part:
as §1, §2

The mark [1] stands for this setting: determined from enzyme-coupled assays.

Chain of IPMK (Q8NFU5 whole entry, species assumed): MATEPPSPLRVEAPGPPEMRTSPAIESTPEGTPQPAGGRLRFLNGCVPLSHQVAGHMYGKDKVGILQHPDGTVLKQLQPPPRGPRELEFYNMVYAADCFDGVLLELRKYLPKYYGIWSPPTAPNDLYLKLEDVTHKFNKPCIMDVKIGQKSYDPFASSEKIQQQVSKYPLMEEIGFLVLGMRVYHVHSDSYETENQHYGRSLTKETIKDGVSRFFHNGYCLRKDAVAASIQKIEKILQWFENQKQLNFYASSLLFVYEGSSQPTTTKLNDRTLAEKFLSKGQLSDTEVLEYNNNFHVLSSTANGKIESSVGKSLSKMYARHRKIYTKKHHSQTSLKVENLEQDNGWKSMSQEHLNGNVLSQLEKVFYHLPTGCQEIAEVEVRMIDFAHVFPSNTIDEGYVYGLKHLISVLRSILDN
Chain of IP6K2 (Q9UHH9 whole entry): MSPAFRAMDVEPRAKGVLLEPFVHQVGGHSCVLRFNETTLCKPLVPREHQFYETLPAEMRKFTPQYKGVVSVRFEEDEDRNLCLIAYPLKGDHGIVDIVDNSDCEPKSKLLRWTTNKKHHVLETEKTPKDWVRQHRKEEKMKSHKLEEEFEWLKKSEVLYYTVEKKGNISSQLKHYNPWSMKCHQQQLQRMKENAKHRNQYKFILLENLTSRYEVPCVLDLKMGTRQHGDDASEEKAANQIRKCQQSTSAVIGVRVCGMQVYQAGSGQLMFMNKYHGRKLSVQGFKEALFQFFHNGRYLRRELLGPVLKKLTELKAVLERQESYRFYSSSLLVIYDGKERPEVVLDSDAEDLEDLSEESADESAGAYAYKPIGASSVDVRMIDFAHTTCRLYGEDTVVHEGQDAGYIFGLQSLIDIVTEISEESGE
Chain of IP6K1 (Q92551 whole entry): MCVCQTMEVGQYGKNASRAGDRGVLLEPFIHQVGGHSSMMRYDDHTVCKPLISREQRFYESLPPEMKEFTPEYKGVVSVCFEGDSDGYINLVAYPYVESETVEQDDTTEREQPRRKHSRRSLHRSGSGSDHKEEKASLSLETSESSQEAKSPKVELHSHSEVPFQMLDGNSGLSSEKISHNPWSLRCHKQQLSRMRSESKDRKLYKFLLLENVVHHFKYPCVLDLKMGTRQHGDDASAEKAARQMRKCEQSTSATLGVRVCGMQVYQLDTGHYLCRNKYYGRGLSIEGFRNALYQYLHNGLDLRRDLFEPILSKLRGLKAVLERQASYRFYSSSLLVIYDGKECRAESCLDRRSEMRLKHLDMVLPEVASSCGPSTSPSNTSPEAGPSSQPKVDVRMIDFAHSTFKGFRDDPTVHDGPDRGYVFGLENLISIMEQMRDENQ

For the molecule `CC(=O)N1CCC(Oc2cccc(-c3onc4ccc(-c5nnn[nH]5)cc34)c2)CC1` [Compound 85, 1-(4-(3-(5-(1H-tetrazol-5-yl)benzo[c]isoxazol-3-yl)phenoxy)piperidin-1-yl)ethan-1-one], the IC50 against IPMK (enzyme-coupled assay, Table 4) is 10 to 100 nM; on IP6K1 (enzyme-coupled assay, Table 4), below 10 nM; against IP6K2 (enzyme-coupled assay, Table 4) it was 10 to 100 nM.
On to `CN1CCC(Oc2cccc(-c3onc4ccc(-c5noc(=O)[nH]5)cc34)c2)CC1` [Cmpd 131], for which the concentration for half-maximal inhibition (IC50) on IPMK (setting [1]), on IP6K1 (setting [1]) and against IP6K2 (setting [1]) was 100 to 1000 nM in each case.
Take `CC(C)N1CCC(Oc2cccc(-c3onc4ccc(-c5nnn[nH]5)cc34)c2)CC1` [Compound 87]: the IC50 at IPMK (enzyme-coupled assay, Table 4) lay within 10 to 100 nM; against IP6K1 (enzyme-coupled assay, Table 4) it was 10 to 100 nM; against IP6K2 (enzyme-coupled assay, Table 4) it was 10 to 100 nM.
For the molecule `Nc1cccc(-c2ccc(-c3onc4ccc(-c5nnn[nH]5)cc34)cc2)c1` [Compound 95], the IC50 on IP6K1 (enzyme-coupled assay, Table 4) is 10 to 100 nM; on IP6K2 (enzyme-coupled assay, Table 4), 10 to 100 nM.
For `COc1ccc(-c2onc3ccc(/C=C/C(=O)O)cc23)cc1` [Compound 13], the IC50 at IP6K1 (enzyme-coupled assay, Table 1) was in the range of 100 to 1000 nM; against IP6K2 (enzyme-coupled assay, Table 1), 1000 to 100000 nM.
On IP6K1 (enzyme-coupled assay, Table 4), `c1cc2noc(-c3ccc(C4CCN(C5CCC5)CC4)cc3)c2cc1-c1nnn[nH]1` [Compound 118] came in with an IC50 of 10 to 100 nM.
Regarding `O=C(C1CC1)N1CCC(Oc2cccc(-c3onc4ccc(-c5noc(=O)[nH]5)cc34)c2)CC1` [Cmpd 138], the IC50 on IPMK (setting [1]) was 10 to 100 nM; against IP6K1 (setting [1]) it was 100 to 1000 nM; at IP6K2 (setting [1]), 10 to 100 nM.
In the case of `O=C(O)c1ccc2noc(-c3ccc(NC(=O)C4CCNCC4)cc3)c2c1` [Compound 48], on IPMK (enzyme-coupled assay, Table 2), the “IPMK IC50” value was “−”. The IC50 against IP6K1 (enzyme-coupled assay, Table 2) was 1000 to 100000 nM; against IP6K2 (enzyme-coupled assay, Table 2), 1000 to 100000 nM.
With `CCOC(=O)/C=C/c1ccc2noc(-c3ccccc3)c2c1` [Compound 7], the IC50 on IP6K1 (enzyme-coupled assay, Table 1) lay within 1000 to 100000 nM; at IP6K2 (enzyme-coupled assay, Table 1), 1000 to 100000 nM.
`Nc1cccc(-c2cccc(-c3onc4ccc(-c5nnn[nH]5)cc34)c2)c1` [Compound 97]: the IC50 on IP6K1 (enzyme-coupled assay, Table 4) was 10 to 100 nM; on IP6K2 (enzyme-coupled assay, Table 4) it was 10 to 100 nM.
On IP6K1 (enzyme-coupled assay, Table 4), `O=C(Nc1ccc(-c2onc3ccc(-c4nnn[nH]4)cc23)cc1)C1CCNCC1` [Compound 99] returned an IC50 of 100 to 1000 nM.
Regarding `c1cc(OC2CNC2)cc(-c2onc3ccc(-c4nnn[nH]4)cc23)c1` [Compound 92], the IC50 lay within 10 to 100 nM against IP6K1 (enzyme-coupled assay, Table 4) and 10 to 100 nM against IP6K2 (enzyme-coupled assay, Table 4).
Take `CNC(=O)c1ccc2noc(-c3ccccc3)c2c1` [Compound 21]: the “IPMK IC50” value at IPMK (enzyme-coupled assay, Table 2) is on record as “−”.
For `O=c1[nH]c(-c2ccc3noc(-c4cccc(OC5CCN(C6CCC6)CC5)c4)c3c2)no1` [Cmpd 133], the IC50 is 10 to 100 nM against IPMK (setting [1]), 100 to 1000 nM on IP6K1 (setting [1]) and 100 to 1000 nM against IP6K2 (setting [1]).
`CC(C)(C)OC(=O)N1CC(C(=O)N2CCC(c3cccc(-c4onc5ccc(-c6nnn[nH]6)cc45)c3)CC2)C1` [Compound 115] displayed an IC50 on IP6K1 (enzyme-coupled assay, Table 4) of 100 to 1000 nM.
As to `CC(C)C(=O)N1CCC(Oc2cccc(-c3onc4ccc(-c5nnn[nH]5)cc34)c2)CC1` [Compound 90], the IC50 at IPMK (enzyme-coupled assay, Table 4) was below 10 nM; against IP6K1 (enzyme-coupled assay, Table 4), 10 to 100 nM; against IP6K2 (enzyme-coupled assay, Table 4), 10 to 100 nM.
In the case of `CN1CCC(NC(=O)c2ccc(-c3onc4ccc(C(=O)O)cc34)cc2)CC1` [Compound 40], at IPMK (enzyme-coupled assay, Table 2), the “IPMK IC50” value was “−”. Moreover, the IC50 lay in the range of 1000 to 100000 nM at IP6K1 (enzyme-coupled assay, Table 2) and 1000 to 100000 nM against IP6K2 (enzyme-coupled assay, Table 2).
In the case of `CC(C)C(=O)Nc1cccc(-c2onc3ccc(C(=O)O)cc23)c1` [Compound 50], the IC50 was in the range of 100 to 1000 nM against IPMK (enzyme-coupled assay, Table 2); 1000 to 100000 nM on IP6K1 (enzyme-coupled assay, Table 2); 100 to 1000 nM at IP6K2 (enzyme-coupled assay, Table 2).
In the case of `CC(C)C(=O)N1CCC(c2cccc(-c3onc4ccc(-c5nnn[nH]5)cc34)c2)CC1` [Compound 109], the IC50 against IP6K1 (enzyme-coupled assay, Table 4) is 10 to 100 nM.
In the case of `CC1(COc2cccc(-c3onc4ccc(-c5nnn[nH]5)cc34)c2)COC1` [Cmpd 91], the IC50 fell in the range of 10 to 100 nM against IP6K1 (enzyme-coupled assay, Table 4) and 10 to 100 nM against IP6K2 (enzyme-coupled assay, Table 4).
Consider `O=C(O)c1ccc2noc(-c3ccc(OC(F)(F)F)cc3)c2c1` [Compound 23], for which the IC50 on IP6K1 (enzyme-coupled assay, Table 2) lay in the range of 1000 to 100000 nM; against IP6K2 (enzyme-coupled assay, Table 2), 100 to 1000 nM.
On to `c1cc(-c2onc3ccc(-c4nnn[nH]4)cc23)cc(C2CCNCC2)c1` [Compound 104], for which, on IP6K1 (enzyme-coupled assay, Table 4), the IC50 was in the range of 100 to 1000 nM.
As to `O=C(O)c1ccc2noc(-c3cccc(-c4cncc(O)c4)c3)c2c1` [Compound 53], the IC50 lay in the range of 100 to 1000 nM on IP6K1 (enzyme-coupled assay, Table 2) and 100 to 1000 nM against IP6K2 (enzyme-coupled assay, Table 2).
As to `CC1(C(=O)N2CCC(Oc3cccc(-c4onc5ccc(-c6nnn[nH]6)cc45)c3)CC2)COC1` [Compound 93], the IC50 against IP6K1 (enzyme-coupled assay, Table 4) is 100 to 1000 nM; against IP6K2 (enzyme-coupled assay, Table 4), 10 to 100 nM.
Consider `O=c1[nH]c(-c2ccc3noc(-c4cccc(OC5CCN(CCO)CC5)c4)c3c2)no1` [Cmpd 135], for which the IC50 lay in the range of 10 to 100 nM on IPMK (setting [1]), 100 to 1000 nM at IP6K1 (setting [1]) and 100 to 1000 nM at IP6K2 (setting [1]).
As for `O=C(O)c1ccc2noc(-c3ccc(C(=O)NCCN4CCOCC4)cc3)c2c1` [Compound 41], the “IPMK IC50” value at IPMK (enzyme-coupled assay, Table 2) is recorded as “−”. Besides, the “IP6K1 IC50” value at IP6K1 (enzyme-coupled assay, Table 2) is listed as “−”. For the same molecule, the “IP6K2 IC50” value at IP6K2 (enzyme-coupled assay, Table 2) was “−”.
`O=c1[nH]c(-c2ccc3noc(-c4cccc(Oc5ncc(Cl)cc5Cl)c4)c3c2)no1` [Cmpd 127]: the IC50 against IPMK (setting [1]), on IP6K1 (setting [1]) and against IP6K2 (setting [1]) was 10 to 100 nM throughout.
